Values after ≈ are worked out from the molar mass of the structure shown.
Legend:
MpaCA = molecular target: T1, MpaCA (Malassezia pachydermatis, UniProt A0A0M8MPA4); experiment: stopped-flow CO2 hydrase assay; format: biochemical
T1 construct: gene Malapachy_3798
T1 sequence (A0A0M8MPA4 1-242): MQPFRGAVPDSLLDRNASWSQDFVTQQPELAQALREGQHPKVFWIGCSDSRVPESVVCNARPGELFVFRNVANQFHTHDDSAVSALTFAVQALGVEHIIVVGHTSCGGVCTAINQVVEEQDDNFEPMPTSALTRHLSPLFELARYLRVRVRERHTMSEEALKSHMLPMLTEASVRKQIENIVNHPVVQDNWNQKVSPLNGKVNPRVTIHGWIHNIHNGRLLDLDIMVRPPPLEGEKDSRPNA

MgCA = molecular target: T2, MgCA (Malassezia globosa, UniProt A8Q1N3); experiment: stopped-flow CO2 hydrase assay; format: biochemical
T2 construct: gene MGL_1814
T2 sequence (A8Q1N3 1-241): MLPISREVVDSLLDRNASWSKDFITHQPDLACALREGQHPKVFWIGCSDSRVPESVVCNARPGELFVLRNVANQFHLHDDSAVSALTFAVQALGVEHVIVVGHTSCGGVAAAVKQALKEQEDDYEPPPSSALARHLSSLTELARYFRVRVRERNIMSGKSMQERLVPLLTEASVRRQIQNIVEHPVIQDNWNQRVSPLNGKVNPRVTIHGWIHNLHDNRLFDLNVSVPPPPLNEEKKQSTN
In short: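 Stopped-flow recording over 10–100 s followed CO2 hydration (1.7–17 mM CO2) in 20 mM Hepes pH 7.4 plus 20 mM Na2SO4, using 0.2 mM phenol red at 557 nm, after recombinant carbonic anhydrase (5–12 nM) had been preincubated with inhibitor for 15 min at room temperature. Initial rates, corrected for uncatalysed rates, came from at least six traces, and at least three determinations were averaged. Ki was calculated by nonlinear least-squares fitting with the Cheng-Prusoff equation.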

[1] = test system: T3, M. pachydermatis DSMZ 6172; experiment: microbe, parasite or virus in culture; parameters: broth microdilution MIC, M. pachydermatis and Candida, 35 °C; details: Malassezia pachydermatis, DSMZ6172
T3 construct: DSMZ 6172 (CDC 16334)
Method: (§1) Inoculum preparations for antifungal assays were performed following the CLSI guidelines for antifungal susceptibility testing of yeasts.[31] Antifungal activity was evaluated on unicellular yeasts Candida albicans ATCC 10231, Candida glabrata ATCC 90030 (DSMZ 11226), Malassezia pachydermatis CDC 16334 (DSMZ 6172), Malassezia globosa ATCC MYA 4612, and Malassezia furfur ATCC 14521. All the fungal strains were stored at −80 °C in cryovials. Then Candida spp. and Malassezia pachydermatis were reactivated in RPMI 1640 broth for 24–48 h at 35 °C. The so obtained fresh cultures were streaked onto Sabouraud dextrose agar and incubated for 24–48 h at 35 °C. Malassezia globosa and furfur were reactivated in modified RPMI 1640 broth[32] for 24–48 h at 35 °C (M. furfur) and 33 °C (M. globosa), and then the cultures were streaked onto Leeming and Notman agar (MLNA) and incubated for 48–72 h at 35 °C for M. furfur and at 33 °C for M. globosa. The fungal inoculum for the testing was prepared by suspending in phosphate buffer (PB) 10 mM pH 7 4–5 colonies of about 1 mm diameter. The fungal suspension was then adjusted to a final optical density of 0.5 McFarland standard (1–5 × 10^6 cells/mL). The compound solutions were tested in a range of concentrations from 0.01 μg/mL to 256 μg/mL, and 50 μL were then added in 96 wells microtiter plates with 50 μL of fungal inoculum and incubated for 24–48 h at 35 °C. Growth and sterility controls were performed. […] Compounds 3a, 3c, 5b, 7a–d, 9c, 11e, 11i, and 14a,b were selected as representatives of the chemical moieties synthesized prior to their screen on yeasts of biomedical relevance such as M. pachydermatis DSMZ 6172, C. albicans ATCC 10231, and C. glabrata ATCC 90030 (DSMZ 11226) strains. The clinical used drugs Ketoconazole, SeS2, and Amphotericin B were included as references (Table 1).

ATCC M. furfur 14521 = test system: T4, ATCC M. furfur 14521; experiment: microbe, parasite or virus in culture; details: Malassezia furfur
T4 construct: ATCC 14521
Method: as §1

M. globosa ATCC MYA 4612 = test system: T5, M. globosa ATCC MYA 4612; experiment: microbe, parasite or virus in culture; details: Malassezia globosa
T5 construct: ATCC MYA 4612
Method: as §1

Row | SMILES | Ki (MpaCA) [µM] | Ki (MgCA) [µM] | MIC [1] [µg/mL] | MIC (ATCC M. furfur 14521) [µg/mL] | MIC (M. globosa ATCC MYA 4612) [µg/mL]
1 | O=C(NC(=[Se])Nc1ccc(S(=O)(=O)Nc2nccs2)cc1)c1ccc(I)cc1 [10f, 4-Iodo-N-((4-(N-(thiazol-2-yl)sulfamoyl)phenyl)carbamoselenoyl)benzamide] | 74.3 | 10.2 | 2 (≈ 3.38 µM) | 5.3 ± 2.31 (≈ 8.96 µM) | > 256
2 | CCCCCCCc1ccc(C(=O)NC(=[Se])Nc2cccc(S(N)(=O)=O)c2)cc1 [8b, 4-Heptyl-N-((3-sulfamoylphenyl)carbamoselenoyl)benzamide] | 49.3 | 2.19 | 0.8 ± 0.29 (≈ 1.66 µM) | 6.7 ± 2.31 (≈ 13.9 µM) | 213 ± 73.9 (≈ 444 µM)
3 | O=C(NC(=[Se])Nc1ccc(S(=O)(=O)Nc2nccs2)cc1)c1cc(Br)cc(OC(F)(F)F)c1 [10b, 3-Bromo-N-((4-(N-(thiazol-2-yl)sulfamoyl)phenyl)carbamoselenoyl)-5-(trifluoromethoxy)benzamide] | 85.3 | 9.26 | 16 (≈ 25.5 µM) | 427 ± 148 (≈ 679 µM) | 341 ± 148 (≈ 543 µM)
4 | NS(=O)(=O)c1ccc(NC(=[Se])NC(=O)c2ccc(CCl)cc2)cc1 [7i, 4-(Chloromethyl)-N-((4-sulfamoylphenyl)carbamoselenoyl)benzamide] | 67.7 | 0.877 | 6.7 ± 2.31 (≈ 15.6 µM) | 16 (≈ 37.1 µM) | –
5 | NS(=O)(=O)c1cccc(NC(=[Se])NC(=O)c2cc(Br)cc(OC(F)(F)F)c2)c1 [8c, 3-Bromo-N-((3-sulfamoylphenyl)carbamoselenoyl)-5-(trifluoromethoxy)benzamide] | 86.1 | 7.65 | 2 (≈ 3.67 µM) | 9.3 ± 6.11 (≈ 17.1 µM) | 256 (≈ 470 µM)
6 | NS(=O)(=O)c1ccc(NC(=[Se])NC(=O)c2ccc(/N=N/c3ccccc3)cc2)cc1 [7j, (E)-4-(Phenyldiazenyl)-N-((4-sulfamoylphenyl)carbamoselenoyl)benzamide] | 37 | 2.86 | 2 (≈ 4.11 µM) | 21.3 ± 9.24 (≈ 43.8 µM) | 24 ± 13.9 (≈ 49.3 µM)
7 | NS(=O)(=O)c1ccc(O)c(NC(=[Se])NC(=O)c2ccc(Br)cc2F)c1 [11g, 4-Bromo-2-fluoro-N-((2-hydroxy-5-sulfamoylphenyl)carbamoselenoyl)benzamide] | 70.9 | 6.01 | 3.33 ± 1.15 (≈ 6.72 µM) | 5.3 ± 2.31 (≈ 10.7 µM) | 256 (≈ 517 µM)
8 | NS(=O)(=O)c1ccc(CCNC(=[Se])Nc2cccc(C(F)(F)F)c2)cc1 [5c] | 0.992 | 0.701 | – | – | –
9 | NS(=O)(=O)c1ccc(CCNC(=[Se])Nc2ccc(I)cc2)cc1 [5g] | 0.531 | 0.689 | 1 (≈ 1.97 µM) | 1.7 ± 0.58 (≈ 3.34 µM) | 85.3 ± 37 (≈ 168 µM)
10 | NS(=O)(=O)c1ccc(CCNC(=[Se])NC(=O)c2ccc(/N=N/c3ccccc3)cc2)cc1 [9f, (E)-4-(Phenyldiazenyl)-N-((4-sulfamoylphenethyl)carbamoselenoyl)benzamide] | 88.8 | 2.39 | 3.33 ± 1.15 (≈ 6.47 µM) | 2.7 ± 1.15 (≈ 5.25 µM) | 8 (≈ 15.6 µM)
11 | NS(=O)(=O)c1ccc(NC(=[Se])NC(=O)c2ccc([N+](=O)[O-])cc2)cc1 [7f, 4-Nitro-N-((4-sulfamoylphenyl)carbamoselenoyl)benzamide] | 85.4 | 9.01 | 2.2 ± 1.75 (≈ 5.15 µM) | 42.7 ± 18.5 (≈ 99.9 µM) | 64 (≈ 150 µM)
12 | CCCCCCCc1ccc(C(=O)NC(=[Se])Nc2ccc(S(=O)(=O)Nc3nccs3)cc2)cc1 [10c, 4-Heptyl-N-((4-(N-(thiazol-2-yl)sulfamoyl)phenyl)carbamoselenoyl)benzamide] | 91.9 | 60.6 | 0.8 ± 0.29 (≈ 1.42 µM) | 4 (≈ 7.1 µM) | > 256
13 | NS(=O)(=O)c1ccc(CCNC(=[Se])NC(=O)c2ccc(F)cc2)cc1 [9d, 4-Fluoro-N-((4-sulfamoylphenethyl)carbamoselenoyl)benzamide] | 75 | 8 | 1 (≈ 2.33 µM) | 2.3 ± 2.31 (≈ 5.37 µM) | 128 (≈ 299 µM)
14 | NS(=O)(=O)c1ccc(O)c(NC(=[Se])NC(=O)c2ccc(CCl)cc2)c1 [11h, 4-(Chloromethyl)-N-((2-hydroxy-5-sulfamoylphenyl)carbamoselenoyl)benzamide] | 76.6 | 6.49 | 4 (≈ 8.95 µM) | 74.7 ± 48.9 (≈ 167 µM) | > 256
15 | NS(=O)(=O)c1ccc(NC(=[Se])NC(=O)c2ccc(Br)cc2F)cc1 [7h, 4-Bromo-2-fluoro-N-((4-sulfamoylphenyl)carbamoselenoyl)benzamide] | 68.5 | 0.764 | 0.5 (≈ 1.04 µM) | 3.3 ± 1.15 (≈ 6.89 µM) | 64 (≈ 134 µM)
16 | O=C(NC(=[Se])Nc1ccc(S(=O)(=O)Nc2nccs2)cc1)c1ccc(Cl)cc1 [10g, 4-Chloro-N-((4-(N-(thiazol-2-yl)sulfamoyl)phenyl)carbamoselenoyl)benzamide] | 66.7 | 36.1 | 1.3 ± 0.58 (≈ 2.6 µM) | 64 (≈ 128 µM) | > 256
17 | NS(=O)(=O)c1cccc(NC(=[Se])NC(=O)c2ccc(Br)cc2F)c1 [8g, 4-Bromo-2-fluoro-N-((3-sulfamoylphenyl)carbamoselenoyl)benzamide] | 65.7 | 3.48 | 13.3 ± 4.6 (≈ 27.8 µM) | 8 (≈ 16.7 µM) | 128 (≈ 267 µM)
18 | NS(=O)(=O)c1ccc(CCNC(=[Se])Nc2ccccc2Cl)cc1 [5e] | 0.518 | 0.812 | 0.5 (≈ 1.2 µM) | 2.3 ± 1.53 (≈ 5.52 µM) | 256 (≈ 614 µM)
19 | NS(=O)(=O)c1cccc(NC(=[Se])NC(=O)c2ccc(F)cc2)c1 [8d, 4-Fluoro-N-((3-sulfamoylphenyl)carbamoselenoyl)benzamide] | 79.5 | 7.3 | 2 (≈ 5 µM) | 256 (≈ 640 µM) | 256 (≈ 640 µM)
20 | CCCCCCCc1ccc(C(=O)NC(=[Se])Nc2cc(S(N)(=O)=O)ccc2O)cc1 [11b] | 78 | 4.93 | 8 (≈ 16.1 µM) | 5.3 ± 2.31 (≈ 10.7 µM) | 256 (≈ 516 µM)
21 | NS(=O)(=O)c1cccc(NC(=[Se])Nc2ccccc2)c1 [4a] | 0.283 | 0.783 | 4 (≈ 11.3 µM) | 107 ± 37 (≈ 301 µM) | 256 (≈ 723 µM)
22 | CCCCCCCc1ccc(C(=O)NC(=[Se])Nc2ccc(S(N)(=O)=O)cc2)cc1 [7e] | 78.2 | 5.88 | 0.5 (≈ 1.04 µM) | 10.7 ± 4.62 (≈ 22.3 µM) | > 256
23 | NS(=O)(=O)c1ccc(NC(=[Se])NC(=O)c2ccc(I)cc2)cc1 [7g, 4-Iodo-N-((4-sulfamoylphenyl)carbamoselenoyl)benzamide] | 76.1 | 3.11 | 0.5 (≈ 0.984 µM) | 6 ± 3.46 (≈ 11.8 µM) | 256 (≈ 504 µM)
24 | NS(=O)(=O)c1ccc(NC(=[Se])Nc2ccccc2Cl)cc1 [3e] | 0.693 | 0.655 | 1 ± 0.87 (≈ 2.57 µM) | 5.3 ± 2.31 (≈ 13.6 µM) | 256 (≈ 659 µM)
25 | NS(=O)(=O)c1ccc(NC(=[Se])NC(=O)c2ccc(F)cc2)cc1 [7k, 4-Fluoro-N-((4-sulfamoylphenyl)carbamoselenoyl)benzamide] | 80.8 | 8.29 | 0.5 (≈ 1.25 µM) | 5.3 ± 2.31 (≈ 13.2 µM) | 256 (≈ 640 µM)
26 | NS(=O)(=O)c1ccc(NC(=[Se])Nc2ccc(F)cc2)cc1 [3b] | 0.965 | 0.648 | – | – | –
27 | NS(=O)(=O)c1ccc(CCNC(=[Se])Nc2ccc(Br)cc2)cc1 [5d] | 0.369 | 0.683 | – | – | –
28 | NS(=O)(=O)c1ccc(CCNC(=[Se])Nc2ccccc2)cc1 [5a] | 0.793 | 0.655 | – | – | –
29 | NS(=O)(=O)c1cccc(NC(=[Se])Nc2ccc(F)cc2)c1 [4b] | 0.342 | 0.7 | – | – | –
